Data from US9469642B2, “Purinone compounds as kinase inhibitors” (Pharmacyclics LLC, priority 2012, dated 2016).

Columns and labels:
Type in all cases: biochemical
LCK = LCK (Homo sapiens, UniProt P06239); test: Kinase panel inhibition, LCK (one of the methods of Example 76a, 76b, 76c)
Summary of the method: (§1)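 BTK (0.5 nM) and LCK (6 nM) by TR-FRET, ATP at Km, biotinylated peptide, pH 7.4, 1 h; Ki(app) converted to IC50. Alternatively, full-length His6-BTK (1 nM) by mobility shift, 16 μM ATP (Km), 1 μM FAM peptide, pH 7.5, 1 h; IC50 from 12-point 4-parameter fit. Radiometric filter-binding option also used.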

EGFR = EGFR (Homo sapiens, UniProt P00533); test: Kinase panel inhibition, EGFR (one of the methods of Example 76a, 76b, 76c)
Chain of EGFR (P00533 25-1210, species assumed): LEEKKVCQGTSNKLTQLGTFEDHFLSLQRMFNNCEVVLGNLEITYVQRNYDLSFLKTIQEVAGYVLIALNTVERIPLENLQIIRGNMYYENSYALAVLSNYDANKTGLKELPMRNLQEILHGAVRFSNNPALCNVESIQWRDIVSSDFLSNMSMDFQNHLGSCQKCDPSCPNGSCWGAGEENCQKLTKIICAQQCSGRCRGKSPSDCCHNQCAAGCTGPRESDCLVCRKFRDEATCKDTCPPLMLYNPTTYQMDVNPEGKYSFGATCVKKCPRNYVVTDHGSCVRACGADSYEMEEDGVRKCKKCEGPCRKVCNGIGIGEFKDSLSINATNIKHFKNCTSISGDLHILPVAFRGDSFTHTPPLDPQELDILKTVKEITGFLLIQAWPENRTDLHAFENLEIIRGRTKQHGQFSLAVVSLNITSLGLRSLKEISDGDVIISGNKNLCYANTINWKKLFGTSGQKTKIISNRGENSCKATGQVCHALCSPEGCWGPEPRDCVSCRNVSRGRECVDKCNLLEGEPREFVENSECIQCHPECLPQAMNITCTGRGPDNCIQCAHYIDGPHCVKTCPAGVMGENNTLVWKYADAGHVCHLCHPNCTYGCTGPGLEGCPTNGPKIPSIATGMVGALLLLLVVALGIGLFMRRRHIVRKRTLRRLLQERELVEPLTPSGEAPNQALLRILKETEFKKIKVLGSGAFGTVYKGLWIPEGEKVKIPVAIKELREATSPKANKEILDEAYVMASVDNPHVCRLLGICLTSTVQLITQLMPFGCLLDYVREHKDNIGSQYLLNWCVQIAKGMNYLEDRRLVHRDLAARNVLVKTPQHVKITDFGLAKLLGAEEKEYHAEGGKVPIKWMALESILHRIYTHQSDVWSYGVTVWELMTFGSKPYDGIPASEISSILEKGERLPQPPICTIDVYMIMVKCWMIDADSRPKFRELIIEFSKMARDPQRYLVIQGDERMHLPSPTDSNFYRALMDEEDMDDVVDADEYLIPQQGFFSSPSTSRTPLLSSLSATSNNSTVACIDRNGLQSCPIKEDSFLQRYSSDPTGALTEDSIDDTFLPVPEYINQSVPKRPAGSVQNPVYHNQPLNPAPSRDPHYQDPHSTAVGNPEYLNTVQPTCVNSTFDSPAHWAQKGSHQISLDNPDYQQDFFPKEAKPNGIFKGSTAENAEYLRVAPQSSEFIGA
Summary of the method: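 Kinase activity was measured by TR-FRET in 50 μL reactions in 96-well plates. Enzyme, inhibitor, ATP at its Km and a biotinylated peptide substrate were incubated for one hour at pH 7.4 in buffer containing 20 mM Tris, 50 mM NaCl, MgCl2, MnCl2, 1 mM DTT, 0.1 mM EDTA, 0.01% bovine serum albumin, 0.005% Tween-20 and 10% DMSO. Reactions were stopped with EDTA in Lance buffer. Streptavidin-APC and Eu-labeled p-Tyr100 antibody were added for one hour. The 665/615 nm emission ratio gave activity. IC50 was derived from Ki(app) fitted with BatchKi.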

BTK = target: T1, BTK (Homo sapiens, UniProt Q06187); test: Btk in vitro inhibitory activity (kinase assay by one of Methods A, B or C)
T1 construct: purified from insect cells as a full-length construct containing a N-terminal 6×-His tag; His6 (N); host or cells: insect cells (baculovirus Sf21)
T1 sequence (Q06187 whole entry): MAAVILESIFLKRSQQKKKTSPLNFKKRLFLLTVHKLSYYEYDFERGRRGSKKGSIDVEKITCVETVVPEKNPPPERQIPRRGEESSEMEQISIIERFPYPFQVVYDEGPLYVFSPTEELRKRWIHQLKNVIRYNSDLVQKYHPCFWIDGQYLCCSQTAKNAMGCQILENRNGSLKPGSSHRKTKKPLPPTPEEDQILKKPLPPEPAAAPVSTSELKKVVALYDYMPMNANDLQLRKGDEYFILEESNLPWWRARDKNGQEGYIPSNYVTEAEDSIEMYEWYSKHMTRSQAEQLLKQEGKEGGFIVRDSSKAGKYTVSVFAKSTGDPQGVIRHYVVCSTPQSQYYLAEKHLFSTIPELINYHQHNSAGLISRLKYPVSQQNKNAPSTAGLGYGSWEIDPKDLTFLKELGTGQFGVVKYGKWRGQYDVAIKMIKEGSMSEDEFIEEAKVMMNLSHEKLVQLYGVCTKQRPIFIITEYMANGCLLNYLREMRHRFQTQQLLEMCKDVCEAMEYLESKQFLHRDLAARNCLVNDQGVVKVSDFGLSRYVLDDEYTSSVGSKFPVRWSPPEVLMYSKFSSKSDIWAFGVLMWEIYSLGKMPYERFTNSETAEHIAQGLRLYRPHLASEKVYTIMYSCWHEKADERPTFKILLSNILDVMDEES
Summary of the method: as §1

Chain of LCK (P06239 whole entry, species assumed): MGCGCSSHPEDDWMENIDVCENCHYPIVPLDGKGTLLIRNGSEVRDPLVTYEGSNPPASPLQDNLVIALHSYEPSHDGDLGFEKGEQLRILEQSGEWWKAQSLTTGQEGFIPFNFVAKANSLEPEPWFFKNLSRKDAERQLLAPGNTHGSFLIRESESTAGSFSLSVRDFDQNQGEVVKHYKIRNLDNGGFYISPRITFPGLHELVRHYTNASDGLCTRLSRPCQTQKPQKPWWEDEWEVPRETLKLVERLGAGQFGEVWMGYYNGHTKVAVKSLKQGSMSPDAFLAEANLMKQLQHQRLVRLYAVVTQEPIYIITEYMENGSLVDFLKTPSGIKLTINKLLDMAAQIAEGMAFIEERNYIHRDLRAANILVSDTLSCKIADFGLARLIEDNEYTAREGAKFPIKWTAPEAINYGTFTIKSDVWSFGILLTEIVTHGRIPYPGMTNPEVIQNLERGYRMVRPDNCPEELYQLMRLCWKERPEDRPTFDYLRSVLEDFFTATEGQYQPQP

SMILES	IC50 (LCK)	IC50 (EGFR)	IC50 (BTK)
COCCOc1ccc(-n2c(=O)n(-c3ccc(C)c(OC)c3)c3c(N)ncnc32)cc1N(C)C(=O)/C=C/CN(C)C [Compound 104, (E)-N-(5-(6-amino-7-(3-methoxy-4-methylphenyl)-8-oxo-7H-purin-9(8H)-yl)-2-(2-methoxyethoxy)phenyl)-4-(dimethylamino)-N-methylbut-2-enamide]	> 10000 nM	> 10000 nM	100 to 1000 nM
C=CC(=O)N(C)c1ccc(-n2c(=O)n(-c3ccc(Cl)cc3)c3c(N)ncnc32)cc1 [Compound 51, N-(4-(6-amino-7-(4-chlorophenyl)-8-oxo-7H-purin-9(8H)-yl)phenyl)-N-methylacrylamide]	1000 to 10000 nM	100 to 1000 nM	< 100 nM
Cc1cccc(COc2ccc(-n3c(=O)n(-c4cccc(N(C)C(=O)/C=C/CN(C)C5CC5)c4)c4ncnc(N)c43)cc2)c1 [Compound 239, (E)-N-(3-(6-amino-7-(4-(3-methylbenzyloxy)phenyl)-8-oxo-7H-purin-9(8H)-yl)phenyl)-4-(cyclopropyl(methyl)amino)-N-methylbut-2-enamide]	> 10000 nM	1000 to 10000 nM	< 100 nM
COc1cc(-n2c(=O)n([C@@H]3CCN(C(=O)/C=C/CN(C)C)C3)c3ncnc(N)c32)ccc1C [Compound 81, (R,E)-6-amino-9-(1-(4-(dimethylamino)but-2-enoyl)pyrrolidin-3-yl)-7-(3-methoxy-4-methylphenyl)-7H-purin-8(9H)-one]	1000 to 10000 nM	> 10000 nM	< 100 nM
CN(C(=O)/C(C#N)=C/C1CC1)c1cccc(-n2c(=O)n(-c3ccc(Oc4ccccc4)cc3)c3c(N)ncnc32)c1 [Compound 325, (E)-N-(3-(6-amino-8-oxo-7-(4-phenoxyphenyl)-7H-purin-9(8H)-yl)phenyl)-2-cyano-3-cyclopropyl-N-methylacrylamide]	100 to 1000 nM	100 to 1000 nM	< 100 nM
CN(C)C/C=C/C(=O)N1CC[C@@H](n2c(=O)n(-c3ccc(Cl)cc3)c3c(N)ncnc32)C1 [Compound 67, (R,E)-6-amino-7-(4-chlorophenyl)-9-(1-(4-(dimethylamino)but-2-enoyl)pyrrolidin-3-yl)-7H-purin-8(9H)-one]	1000 to 10000 nM	> 10000 nM	100 to 1000 nM
N#C/C(=C\C1CC1)C(=O)N1CCC[C@@H](n2c(=O)n(-c3ccc(Oc4ccccc4)cc3)c3c(N)ncnc32)C1 [Compound 324, (R,E)-2-(3-(6-amino-8-oxo-7-(4-phenoxyphenyl)-7H-purin-9(8H)-yl)piperidine-1-carbonyl)-3-cyclopropylacrylonitrile]	100 to 1000 nM	100 to 1000 nM	< 100 nM
COc1cc(-n2c(=O)n(-c3cccc(N(C)C(=O)/C=C/CN(C)C4CC4)c3)c3ncnc(N)c32)ccc1OCc1ccccc1 [Compound 295, (E)-N-(3-(6-amino-7-(4-(benzyloxy)-3-methoxyphenyl)-8-oxo-7H-purin-9(8H)-yl)phenyl)-4-(cyclopropyl(methyl)amino)-N-methylbut-2-enamide]	> 10000 nM	> 10000 nM	< 100 nM
CN(C/C=C/C(=O)N1CC[C@@H](n2c(=O)n(-c3ccc(Oc4ccccc4)cc3)c3c(N)ncnc32)C1)C1CC1 [Compound 63, (R,E)-6-amino-9-(1-(4-(cyclopropyl(methyl)amino)but-2-enoyl)pyrrolidin-3-yl)-7-(4-phenoxyphenyl)-7H-purin-8(9H)-one]	100 to 1000 nM	1000 to 10000 nM	< 100 nM

The next lines start with the values.

IC50 (LCK)	IC50 (EGFR)	IC50 (BTK)	SMILES
1000 to 10000 nM	1000 to 10000 nM	< 100 nM	COc1cc(-n2c(=O)n(-c3cccc(N(C)C(=O)/C=C/CN(C)C4CC4)c3)c3ncnc(N)c32)ccc1Oc1ccccc1 [Compound 285, (E)-N-(3-(6-amino-7-(3-methoxy-4-phenoxyphenyl)-8-oxo-7H-purin-9(8H)-yl)phenyl)-4-(cyclopropyl(methyl)amino)-N-methylbut-2-enamide]
1000 to 10000 nM	1000 to 10000 nM	< 100 nM	COc1ccc(-n2c(=O)n(-c3ccc(Oc4ccccc4)cc3)c3c(N)ncnc32)cc1N(C)C(=O)/C=C/CN(C)[C@H]1CCOC1 [Compound 313, (S,E)-N-(5-(6-amino-8-oxo-7-(4-phenoxyphenyl)-7H-purin-9(8H)-yl)-2-methoxyphenyl)-N-methyl-4-(methyl(tetrahydrofuran-3-yl)amino)but-2-enamide]
1000 to 10000 nM	1000 to 10000 nM	< 100 nM	CN(C(=O)/C=C/CN(C)[C@H]1CCOC1)c1cccc(-n2c(=O)n(-c3ccc(Oc4ccccc4)cc3)c3c(N)ncnc32)c1 [Compound 123, (S,E)-N-(3-(6-amino-8-oxo-7-(4-phenoxyphenyl)-7H-purin-9(8H)-yl)phenyl)-N-methyl-4-(methyl(tetrahydrofuran-3-yl)amino)but-2-enamide]
1000 to 10000 nM	1000 to 10000 nM	< 100 nM	CN(C(=O)/C=C/CN(C)C1CC1)c1cccc(-n2c(=O)n(-c3ccc(Oc4cccc(F)c4)cc3)c3c(N)ncnc32)c1 [Compound 151, (E)-N-(3-(6-amino-7-(4-(3-fluorophenoxy)phenyl)-8-oxo-7H-purin-9(8H)-yl)phenyl)-4-(cyclopropyl(methyl)amino)-N-methylbut-2-enamide]
1000 to 10000 nM	100 to 1000 nM	< 100 nM	COCCN(C)C/C=C/C(=O)N(C)c1cccc(-n2c(=O)n(-c3ccc(Oc4ccccc4)cc3)c3c(N)ncnc32)c1 [Compound 134, (E)-N-(3-(6-amino-8-oxo-7-(4-phenoxyphenyl)-7H-purin-9(8H)-yl)phenyl)-4-((2-methoxyethyl)(methyl)amino)-N-methylbut-2-enamide]
1000 to 10000 nM	100 to 1000 nM	< 100 nM	CN(C(=O)/C=C/CN(C)C1CC1)c1cccc(-n2c(=O)n(-c3ccc(Oc4ccccc4)cc3)c3c(N)ncnc32)c1 [Compound 34, (E)-N-(3-(6-amino-8-oxo-7-(4-phenoxyphenyl)-7H-purin-9(8H)-yl)phenyl)-4-(cyclopropyl(methyl)amino)-N-methylbut-2-enamide]
1000 to 10000 nM	1000 to 10000 nM	< 100 nM	Cc1cc(Oc2ccccc2)ccc1-n1c(=O)n(-c2cccc(N(C)C(=O)/C=C/CN(C)C3CC3)c2)c2ncnc(N)c21 [Compound 290, (E)-N-(3-(6-amino-7-(2-methyl-4-phenoxyphenyl)-8-oxo-7H-purin-9(8H)-yl)phenyl)-4-(cyclopropyl(methyl)amino)-N-methylbut-2-enamide]
100 to 1000 nM	< 100 nM	< 100 nM	CN(C/C=C/C(=O)Nc1cccc(-n2c(=O)n(-c3ccc(Oc4ccccc4)cc3)c3c(N)ncnc32)c1)C1CC1 [Compound 9, (E)-N-(3-(6-amino-8-oxo-7-(4-phenoxyphenyl)-7H-purin-9(8H)-yl)phenyl)-4-(cyclopropyl(methyl)amino)but-2-enamide]
100 to 1000 nM	1000 to 10000 nM	< 100 nM	CN(C)C/C=C/C(=O)N(C)c1ccc(-n2c(=O)n(-c3ccc(Oc4ccccc4)cc3)c3c(N)ncnc32)cc1 [Compound 43, (E)-N-(4-(6-amino-8-oxo-7-(4-phenoxyphenyl)-7H-purin-9(8H)-yl)phenyl)-4-(dimethylamino)-N-methylbut-2-enamide]
